This note sets out measurements from PMC6835155, “Lessons from LIMK1 enzymology and their impact on inhibitor design” (Biochemical Journal, 2019).

Where a name gives a salt, the structure may show the parent alone.

One test has as its target T1, LIMK1KD (Homo sapiens, UniProt P53667).
T1 construct: His6 (N, cleaved yes); made in house; host or cells: baculovirus; Sf9 for virus, TriEx insect cells for expression
Nature of the test: Differential (dynamic) scanning fluorimetry (DSF) assay, LIMK1KD. In kind it is binding. Particulars: 2 µM LIMK1KD, compound 10 µM, single shot; for ΔTm at 10 µM: read-out: TM Shift LIMK1 (K).

A further test addresses T2, LIMK2KD (Homo sapiens, UniProt P53671).
T2 construct: The cDNA coding for LIMK2 residues 330 to 632 was PCR amplified; His6 (N, cleaved yes); made in house; host or cells: baculovirus; Sf9 for virus, TriEx insect cells for expression
In words: Differential (dynamic) scanning fluorimetry (DSF) assay, LIMK2KD. The settings on record: LIMK2KD, compound 10 µM, single shot; for ΔTm at 10 µM: read-out: TM Shift LIMK2 (K). It counts as binding.

T2 sequence (P53671 330-632): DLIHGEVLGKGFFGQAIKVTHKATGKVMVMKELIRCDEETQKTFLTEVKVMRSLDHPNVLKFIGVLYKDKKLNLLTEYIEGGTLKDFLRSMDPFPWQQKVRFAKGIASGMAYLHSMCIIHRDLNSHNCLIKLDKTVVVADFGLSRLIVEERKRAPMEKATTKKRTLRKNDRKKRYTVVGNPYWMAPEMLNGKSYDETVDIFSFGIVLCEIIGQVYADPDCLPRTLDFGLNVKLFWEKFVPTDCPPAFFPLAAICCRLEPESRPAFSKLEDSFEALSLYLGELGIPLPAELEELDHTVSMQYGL
T1 sequence (P53667 330-637): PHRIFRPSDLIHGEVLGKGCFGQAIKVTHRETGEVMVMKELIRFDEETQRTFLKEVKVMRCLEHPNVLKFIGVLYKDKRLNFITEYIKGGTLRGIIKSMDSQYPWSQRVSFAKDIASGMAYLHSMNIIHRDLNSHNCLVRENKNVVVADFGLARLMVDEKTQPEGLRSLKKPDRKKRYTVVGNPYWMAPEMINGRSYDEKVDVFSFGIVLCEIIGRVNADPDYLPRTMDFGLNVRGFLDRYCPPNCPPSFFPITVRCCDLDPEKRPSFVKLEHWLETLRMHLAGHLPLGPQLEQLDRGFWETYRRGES

Take `NC1(Cc2ccc(Cl)cc2)CCN(c2ncnc3[nH]ccc23)CC1` [CCT128930]: the “TM Shift LIMK1 (K)” value on LIMK1KD was 0.4 K. Also, the “TM Shift LIMK2 (K)” value on LIMK2KD was 1.0 K.
For `O=C(Nc1ccc2[nH]nc(-c3ccncc3)c2c1)[C@@H]1CCN(CC(=O)N2CCN(c3ccc(-c4ncccn4)cc3)CC2)C1` [SCH772984], the ΔTm at 10 µM came to 0.3 °C at LIMK1KD and 0.1 °C at LIMK2KD.
As to `N#CCNC(=O)c1ccc(-c2ccnc(Nc3ccc(N4CCOCC4)cc3)n2)cc1` [CYT387], the “TM Shift LIMK1 (K)” value at LIMK1KD is 1.2 K. In addition, the “TM Shift LIMK2 (K)” value at LIMK2KD (10 µM) is 0.8 K.
For `C=CCN(/C=C1/C(=O)O[C@H](COC)[C@@]2(C)C1=C(O)C(=O)C1=C2[C@H](OC(C)=O)C[C@]2(C)C(=O)CC[C@@H]12)CC=C` [Sonolisib], the ΔTm at 10 µM on LIMK1KD turned out to be 0.7 °C; on LIMK2KD, 0.6 °C.
The corresponding values for `O=C(Nc1cccc(Cl)c1)Nc1ncc(CCNc2ncnc3ccsc23)s1` [SNS-314 Mesylate] are -0.5 °C and 0.8 °C.
With `O=C(c1ccc(Nc2nccc(-c3cc4ccccc4s3)n2)cc1)N1CCC(N2CCCC2)CC1` [IKK-16 (IKK Inhibitor VII)], the “TM Shift LIMK1 (K)” value at LIMK1KD came to 7.0 K. Further, on LIMK2KD, the “TM Shift LIMK2 (K)” value amounted to 2.1 K.
For the compound `C[S+]([O-])c1ccc(-c2nc(-c3ccncc3)c(-c3ccc(F)cc3)[nH]2)cc1` (stereo not drawn) [SB203580], the ΔTm at 10 µM stood at 1.3 °C on LIMK1KD and 3.3 °C on LIMK2KD.
Consider `COc1ccc2c(Oc3ccc(NC(=O)c4c(C)n(CC(C)(C)O)n(-c5ccccc5)c4=O)nc3)ccnc2c1` [AMG-458], for which the “TM Shift LIMK1 (K)” value at LIMK1KD turned out to be 1.3 K. At LIMK2KD, the “TM Shift LIMK2 (K)” value is on record as -0.8 K.
Take `COc1cc(Nc2ncc(F)c(Nc3ccc4c(n3)NC(=O)C(C)(C)O4)n2)cc(OC)c1OC` [Tamatinib]: the ΔTm at 10 µM at LIMK1KD came to 5.5 °C; on LIMK2KD, 3 °C.
The corresponding values for `CCc1nc(-c2cccc(C)c2)c(-c2ccnc(NC(=O)c3ccccc3)c2)s1` [TAK-715] are 0.4 °C and 2.6 °C.
Consider `CCN1/C(=C/C(C)=O)Sc2ccc(OC)cc21` [TG003], for which, at LIMK1KD, the “TM Shift LIMK1 (K)” value was -1.0 K. Besides, the “TM Shift LIMK2 (K)” value at LIMK2KD is -1.2 K.
For `N#CCNC(=O)c1ccc(-c2ccnc(Nc3ccc(N4CCOCC4)cc3)n2)cc1` [Momelotinib], on LIMK1KD, the “TM Shift LIMK1 (K)” value was 6.3 K. For the same compound, on LIMK2KD (10 µM), the “TM Shift LIMK2 (K)” value was found to be 4.2 K.
Turning to `COc1cc2nccc(Oc3ccc(NC(=O)NC4CC4)c(Cl)c3)c2cc1C(N)=O` [Lenvatinib (E7080), Lenvatinib], the figures for the ΔTm at 10 µM at LIMK1KD and at LIMK2KD were 0.7 °C and 0.1 °C, respectively.
The corresponding values for `Cc1nc(N)sc1-c1ccnc(Nc2ccc(N3CCOCC3)cc2)n1` [CYC116] are 3.7 °C and 1.6 °C.
Taken in the same sequence, the figures for `COc1cc2ncnc(Nc3ccc(F)c(Cl)c3)c2cc1NC(=O)/C=C/CN1CCCCC1` [Dacomitinib (PF299804, PF299), Dacomitinib] were 0.9 °C and 0.2 °C.
Take `CN1CCN(c2ccc3nc(-c4c(N)c5c(F)cccc5[nH]c4=O)[nH]c3c2)CC1` [Dovitinib (TKI-258) Dilactic Acid, Dovitinib]: the values for the ΔTm at 10 µM on LIMK1KD and at LIMK2KD were 2.2 °C and 3.8 °C, respectively.
`CCN(CCO)CCCOc1ccc2c(Nc3cc(CC(=O)Nc4cccc(F)c4)[nH]n3)ncnc2c1` [AZD1152-HQPA, Barasertib]: the “TM Shift LIMK1 (K)” value worked out at 0.6 K at LIMK1KD and 0.2 K on LIMK1KD (listed as Barasertib (AZD1152-HQPA)). Also, the “TM Shift LIMK2 (K)” value on LIMK2KD (10 µM) is listed as 0.7 K; on LIMK2KD (listed as Barasertib (AZD1152-HQPA), 10 µM) it was -0.2 K.
As to `CC(C)(O)CC(=O)NCCn1ccc2ncnc(Nc3ccc(Oc4cccc(C(F)(F)F)c4)c(Cl)c3)c21` [TAK-285], the ΔTm at 10 µM on LIMK1KD is -1.1 °C; at LIMK2KD, 0 °C.
For `Cc1nc(NC(=O)N2CCC[C@H]2C(N)=O)sc1-c1csc(C(C)(C)C)n1` [A66], on LIMK1KD, the “TM Shift LIMK1 (K)” value is listed as 0.0 K. The “TM Shift LIMK2 (K)” value on LIMK2KD was determined as 1.0 K.
The corresponding values for `COc1cc2ncc(-c3ccccc3)nc2cc1OC` [Tyrphostin AG 1296] are 0.0 K and -1.3 K.
